From article PMC12075686, “Structural basis of phosphorylation-independent nuclear import of CIRBP by TNPO3” (Nature Communications, 2025) come the findings set out here.

Substitutions are numbered along the chain they refer to. Non-standard residues stand in square brackets, D forms with d. Residues, ends and D or L forms follow the SMILES beside them. No end group written: not given here. pS = N[C@@H](COP(=O)(O)O)C(=O)O

The test system of assay [1] is TNPO3. Put plainly: NMR binding studies with TNPO3 (1H-15N HSQC, 1H-13C HMQC, 1H 1D, STD). Conditions: for line broadening of peptide 1H signals upon addition of TNPO3 (1H NMR): 50 µM peptide, stoichiometric amount of TNPO3; for chemical shift perturbations of TNPO3 methyl groups upon ligand addition (1H,13C HMQC): 100 µM [IM-methyl 13C] labeled TNPO3, one stoichiometric equivalent of ligand, 298 K. The arrangement: species or system human. Here is the method: All NMR studies for TNPO3 were carried out using the wild type protein. Protein samples for ^1H-^13C HMQC were prepared at a concentration of 100 μM and equilibrated in a buffer containing 50 mM Tris–HCl, pH 6.7, 150 mM NaCl, 2 mM TCEP and 10% D2O. Spectral acquisitions for TNPO3 free and in complex with CIRBP^RSY and SRSF1^RS, respectively were performed at 298 K on a 700 MHz Bruker Avance III NMR spectrometer equipped with a TCI triple-resonance cryoprobe. The pulse program was sfhmqcf2gpph and the spectra were recorded with 32 scans, interscan delay of 1 s, 160 points in F1, 1024 points in F2, 5283.879 Hz spectral width in F1, and 11,160.714 Hz spectral width in F2. Spectra were processed using Topspin 4.1.3.
Spectral acquisitions for TNPO3 free and in complex with mCIRBP^RSY, pCIRBP^RSY, and pSRSF1^RS, respectively, were performed at 298 K on a 600 MHz Bruker Avance Neo NMR spectrometer equipped with a TXI 600S3 probehead. The pulse program was hmqcgpphwg and the spectra were recorded with 64 scans, interscan delay of 1 s, 200 points in F1, 1024 points in F2, 4545.455 Hz spectral width in F1, and 7812.500 Hz spectral width in F2. Spectra were processed using Topspin 4.3.0.
For ^1H-^15N HSQC spectra, protein samples were equilibrated in a buffer containing 50 mM Tris–HCl, pH 6.7, 150 mM NaCl, 2 mM TCEP, 0.04% NaN3, and 10% D2O (with additional 20 mM MgCl2 for CIRBP phosphorylation kinetics). Data were recorded at 298 K on the 600 MHz Bruker Avance Neo NMR spectrometer equipped with a TXI 600S3 probehead. The pulse program was hsqcetfpf3gpsi and was recorded with 8-16 scans, interscan delay of 1 s, 128 points in F1, 1024 points in F2, 1949.318 Hz spectral width in F1, and 9615.385 Hz spectral width in F2. Spectra were processed using Topspin 4.3.0.

The target in assay [2] is T1, TNPO3 C511A (Homo sapiens, UniProt Q9Y5L0, C511A).
T1 construct: full-length (FL) WT human TNPO3 were generated by synthesizing codon-optimized DNA fragments; His6 (N, cleaved yes); protein A (N, cleaved yes); made in house; host or cells: Escherichia coli BL21-(DE3) Star
T1 sequence (Q9Y5L0 1-923 C511A): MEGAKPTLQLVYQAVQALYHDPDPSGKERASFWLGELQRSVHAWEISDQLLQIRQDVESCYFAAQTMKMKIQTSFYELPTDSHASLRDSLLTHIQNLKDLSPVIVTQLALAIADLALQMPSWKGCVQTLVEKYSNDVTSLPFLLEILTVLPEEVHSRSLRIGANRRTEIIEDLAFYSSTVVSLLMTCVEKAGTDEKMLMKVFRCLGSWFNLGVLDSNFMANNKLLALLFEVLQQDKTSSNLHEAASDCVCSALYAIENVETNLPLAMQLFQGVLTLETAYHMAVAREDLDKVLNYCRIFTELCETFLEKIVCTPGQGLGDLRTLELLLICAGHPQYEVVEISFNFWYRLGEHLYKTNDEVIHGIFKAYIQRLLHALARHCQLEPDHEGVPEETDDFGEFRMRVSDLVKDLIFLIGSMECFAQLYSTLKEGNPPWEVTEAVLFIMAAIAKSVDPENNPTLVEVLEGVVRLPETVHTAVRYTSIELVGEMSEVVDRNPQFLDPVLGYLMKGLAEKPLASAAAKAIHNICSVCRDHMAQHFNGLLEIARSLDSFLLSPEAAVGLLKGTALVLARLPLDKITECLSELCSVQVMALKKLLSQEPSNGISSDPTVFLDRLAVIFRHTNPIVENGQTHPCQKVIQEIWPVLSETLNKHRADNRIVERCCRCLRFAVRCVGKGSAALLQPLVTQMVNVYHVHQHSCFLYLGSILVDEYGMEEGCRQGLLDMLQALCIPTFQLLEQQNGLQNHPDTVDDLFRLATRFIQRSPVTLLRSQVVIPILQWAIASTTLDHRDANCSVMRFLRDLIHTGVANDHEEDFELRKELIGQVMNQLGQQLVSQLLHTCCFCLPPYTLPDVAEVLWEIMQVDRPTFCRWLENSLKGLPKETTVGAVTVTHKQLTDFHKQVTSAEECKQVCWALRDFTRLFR
The assay is described as follows: ITC, ligand titrated into TNPO3 C511A. In kind it is binding. The conditions noted are these: for TNPO3 binding Kd, outcome in words: TNPO3 C511A, two replicates. The method, then: (§1) ITC has been performed by a Malvern Microcal VP-ITC at 25 °C for all binding studies. Samples have been dissolved in Tris buffer containing 50 mM Tris–HCl, 150 mM NaCl, 2 mM TCEP, and 0.04% NaN3 at pH 7.5. Binding studies of CIRBP^RSY and SRSF1^RS were performed with TNPO3 WT, and studies of CIRBP (157–172) and its mutants/phosphorylations were performed with TNPO3 C511A, respectively. Injection has been carried out by a syringe containing ligand solution of 100 μM, which adds ligand step-wise into the cell containing 10 μM TNPO3 during 28 injections of 10 μL each. Data analysis, curve fitting, and calculation of Kd, ΔH, and ΔS have been carried out using Origin-based 7.0 software provided by the manufacturer. All replicated ITC data are shown in Supplementary Fig. 6 and Supplementary Table 1.

The target in assay [3] is T2, TNPO3 WT (Homo sapiens, UniProt Q9Y5L0).
T2 sequence (Q9Y5L0 1-923): T1 sequence (Q9Y5L0 1-923 C511A) with A511C
The assay is described as follows: ITC, ligand titrated into TNPO3 WT. In kind it is binding. Conditions: for ΔS: TNPO3 WT. The method, then: as §1
(ITC needs no label: the signal is the heat of the interaction.)

Where [4] appears, read: 100 µM ligand into 10 µM TNPO3 C511A, 25 °C, 50 mM Tris–HCl, 150 mM NaCl, 2 mM TCEP, 0.04% NaN3, pH 7.5, error = SD of the fit.

On to “PSGGSYRDSYESYGNS [RBMX/RMXL1, synthetic peptide RBMX (276–291), CIRBP-like motif]”, for which the “line broadening of peptide 1H signals upon addition of TNPO3 (1H NMR)” value (shortened to “line broadening”) in assay [1] is recorded as “broadened”. Also, the “change of peptide 1H 1D NMR signals with sub-stoichiometric TNPO3” value in assay [1] (100 µM RSY regions and 10 µM TNPO3 (peer review reply)) is recorded as “slight decrease of peptide signal intensity”. Consider “GGSYRDSYDSAATHNE [CIRBP (157-172) Y167A, synthetic CIRBP (157-172) peptide with point mutation Y167A]”, for which the “Kd / affinity of binding to TNPO3 C511A (ITC), as given in Table 1” value (from here on “Kd / affinity of binding to TNPO3 C511A”) in assay [2] (setting [4]) was “Low affinity”. Moreover, in assay [2], the “TNPO3 binding Kd, outcome in words” value was “Low affinity”. In the case of “DGPRSPSYGRSRSRSRS [SRSF1^RS, recombinant canonical SR/RS-NLS of human SRSF1 (195-211), unphosphorylated, reference compound]”, the “Kd of binding to TNPO3 (ITC), as given in text and figures” value in assay [3] (ITC, 100 µM ligand into 10 µM TNPO3 WT, 28 injections of 10 µL, 25 °C, 50 mM Tris–HCl, 150 mM NaCl, 2 mM TCEP, 0.04% NaN3, pH 7.5, error = SD of the fit) was “no binding was detectable”. Besides, the “spectral changes of 15N-labeled cargo upon addition of TNPO3 (1H,15N HSQC)” value in assay [1] (60 µM cargo, one stoichiometric equivalent of TNPO3, 298 K, pH 6.7) is on record as “weak binding”. For the same molecule, the “chemical shift perturbations of TNPO3 methyl groups upon ligand addition (1H,13C HMQC)” value in assay [1] (pH 6.7) was “no binding was observed”. In the case of SQVYRCGFQPFNQHLLPW [P5CS], the “line broadening” value in assay [1] is listed as “broadened”. GGSYRDSYDSYATHNE [CIRBP (157-172) WT]: in assay [2] (100 µM ligand into 10 µM TNPO3 C511A, 25 °C, 50 mM Tris–HCl, 150 mM NaCl, 2 mM TCEP, 0.04% NaN3, pH 7.5, error = SD of the fit, read-out: Kd / affinity of binding to TNPO3 C511A (ITC), as given in Table 1), the Kd was found to be 5.78 ± 1.63 µM. As for `C[C@H](NC(=O)[C@H](Cc1ccc(O)cc1)NC(=O)[C@H](CO)NC(=O)[C@H](CC(=O)O)NC(=O)[C@H](Cc1ccc(O)cc1)NC(=O)[C@H](CO)NC(=O)[C@H](CC(=O)O)NC(=O)[C@H](CCCNC(=N)N)NC(=O)[C@H](Cc1ccc(O)cc1)NC(=O)[C@H](CO)NC(=O)CNC(=O)CNC(=O)[C@H](CO)NC(=O)[C@H](CO)NC(=O)[C@H](CCCNC(=N)N)NC(=O)[C@H](CC(=O)O)NC(=O)[C@H](COP(=O)(O)O)NC(=O)[C@H](Cc1ccc(O)cc1)NC(=O)CNC(=O)CNC(=O)[C@H](COP(=O)(O)O)NC(=O)[C@H](CCC(N)=O)NC(=O)[C@H](COP(=O)(O)O)NC(=O)[C@H](CCCNC(=N)N)NC(=O)[C@H](CO)NC(=O)[C@H](CO)NC(=O)[C@H](Cc1ccc(O)cc1)NC(=O)[C@H](Cc1ccc(O)cc1)NC(=O)[C@H](CC(=O)O)NC(=O)[C@H](CCCNC(=N)N)NC(=O)[C@H](CO)NC(=O)CN)C(=O)N[C@H](C(=O)N[C@@H](Cc1c[nH]cn1)C(=O)N[C@@H](CC(N)=O)C(=O)N[C@@H](CCC(=O)O)C(=O)O)[C@@H](C)O` [pCIRBP^RSY] (H-GSRDYYSSR[pS]Q[pS]GGY[pS]DRSSGGSYRDSYDSYATHNE-OH), the “decrease of TNPO3 binding affinity upon SRPK1 phosphorylation” value in assay [3] (ITC Kd 0.61 ± 0.10 versus 5.99 ± 0.96 µM) is “ten-fold”. For the same molecule, the ΔS result was “–112 cal/mol/deg” in assay [3] (ITC, replicate 1 (rep1)) and “–50.6 cal/mol/deg” in assay [3] (ITC, replicate 2 (rep2)). In assay [1] (pH 6.7), the “chemical shift perturbations of TNPO3 methyl groups upon ligand addition (1H,13C HMQC)” value is recorded as “shifted to comparable end points”. On to “GGSYADSYDSYATHNE [CIRBP (157-172) R161A, synthetic CIRBP (157-172) peptide with point mutation R161A]”, for which, in assay [2] (setting [4]), the “Kd / affinity of binding to TNPO3 C511A” value is on record as “No binding”. Further, the “TNPO3 binding Kd, outcome in words” value in assay [2] is listed as “No binding”. For YYDYEIERFWRGGQYENFRV [ZCH18], the “line broadening” value in assay [1] was “broadened”. With “GGSYRDSYDpSYATHNE [CIRBP (157-172) S166pS, synthetic CIRBP (157-172) peptide with phosphorylated S166]”, the “Kd / affinity of binding to TNPO3 C511A” value in assay [2] (setting [4]) is recorded as “decreased binding beyond being detectable or fittable”. Further, the “TNPO3 binding Kd, outcome in words” value in assay [2] is reported as “No binding”. As to “GGSYRDSYDSpYATHNE [CIRBP (157-172) Y167pY, synthetic CIRBP (157-172) peptide with phosphorylated Y167]”, the “TNPO3 binding Kd, outcome in words” value in assay [2] was “Low affinity”. In the case of SRDRRFRGRYRSPYSG [RBM39], the “line broadening” value in assay [1] was “broadened”. On to “GGSYRDSADSYATHNE [CIRBP (157-172) Y164A, synthetic CIRBP (157-172) peptide with point mutation Y164A]”, for which the “Kd / affinity of binding to TNPO3 C511A” value in assay [2] (setting [4]) was “No binding”. In addition, the “TNPO3 binding Kd, outcome in words” value in assay [2] is “No binding”. As to “GGSYRDSpYDSYATHNE [CIRBP (157-172) Y164pY, synthetic CIRBP (157-172) peptide with phosphorylated Y164]”, the “Kd / affinity of binding to TNPO3 C511A” value in assay [2] (setting [4]) is listed as “decreased binding beyond being detectable or fittable”. In addition, in assay [2], the “TNPO3 binding Kd, outcome in words” value is listed as “No binding”.
